Measured values reported in patent US20240041042A1, “1-(PYRIDYL)-5-AZINYLPYRAZOLE DERIVATIVES, AND THEIR USE FOR CONTROL OF UNDESIRED PLANT GROWTH” (Bayer Aktiengesellschaft, priority 2020, published 2024).
Where two headings read alike, the source gives them in different places.

Columns and labels:
Type in all cases: in vivo
[1] = test system: Triticum aestivum (TRZAS); details: pre-emergence, crop plant compatibility, in comparison to untreated controls
Summary of the method: (§1)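 Crop injury rated visually in percent against untreated plants roughly 3 weeks after treatment (0% no effect, 100% plants dead). Compounds, as WP or EC with 0.5% additive in 600 l/ha water, were applied to the covering soil right after sowing; greenhouse growth. Suffixes a, b, c denote different dosages.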

Oryza sativa (ORYSA) [2] = details: pre-emergence, crop plant compatibility, in comparison to untreated controls
Summary of the method: as §1

Lolium rigidum (LOLRI) [3] = experiment: Pre-emergence herbicidal action against LOLRI; details: dosage 320 g/ha
Summary of the method: (§2)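 Dosages of 320 g/ha or less; pre-emergence; WP or EC in aqueous spray, 0.5% additive, 600 l/ha; greenhouse; visual % effect after ~3 wk relative to control pots.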

[4] = test system: Pharbitis purpurea (PHBPU); experiment: Pre-emergence herbicidal action against PHBPU; details: dosage 320 g/ha
Summary of the method: as §2

[5] = test system: Echinochloa crus-galli (ECHCG); experiment: Post-emergence herbicidal action against ECHCG; details: dosage 320 g/ha
Summary of the method: (§3)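 Post-emergence greenhouse spray, one-leaf stage, 600 l/ha water plus 0.5% additive; WP or EC formulations; application rates 320 g/ha or lower. Visual % damage vs untreated controls at ~3 weeks.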

Lolium rigidum (LOLRI) [6] = experiment: Post-emergence herbicidal action against LOLRI; details: dosage 320 g/ha
Summary of the method: as §3

Setaria viridis (SETVI) [7] = experiment: Post-emergence herbicidal action against SETVI
Summary of the method: as §3

[8] = test system: Polygonum convolvulus (POLCO); experiment: Pre-emergence herbicidal action against POLCO
Summary of the method: as §2

[9] = test system: Pharbitis purpurea (PHBPU); experiment: Post-emergence herbicidal action against PHBPU
Summary of the method: as §3

[10] = test system: Verconica persica (VERPE); experiment: Post-emergence herbicidal action against VERPE
Summary of the method: as §3

[11] = test system: Verconica persica (VERPE); experiment: Pre-emergence herbicidal action against VERPE; details: dosage 320 g/ha
Summary of the method: as §2

[12] = test system: Triticum aestivum (TRZAS); details: crop plant compatibility, 80 g/ha, effect vs untreated controls
Summary of the method: (§4)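 One-leaf-stage crops (2–3 wk post-sowing, sandy loam, greenhouse) sprayed on green parts; 0.5% additive, 600 l/ha water. Rated by eye ~3 wk later, % vs untreated; suffixes a/b/c mark different dosages.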

Oryza sativa (ORYSA) [13] = details: crop plant compatibility, effect in comparison to untreated controls
Summary of the method: as §4

[14] = test system: Matricaria inodora (MATIN); experiment: Pre-emergence herbicidal action against MATIN; details: dosage 320 g/ha
Summary of the method: as §2

Setaria viridis (SETVI) [15] = experiment: Pre-emergence herbicidal action against SETVI; details: dosage 320 g/ha
Summary of the method: as §2

[16] = test system: Amaranthus retroflexus (AMARE); experiment: Post-emergence herbicidal action against AMARE
Summary of the method: as §3

Avena fatua (AVEFA) = experiment: Post-emergence herbicidal action against AVEFA; details: 320 g/ha, visual rating about 3 weeks after treatment
Summary of the method: as §3

[17] = test system: Amaranthus retroflexus (AMARE); experiment: Pre-emergence herbicidal action against AMARE; details: 320 g/ha, visual scoring after about 3 weeks vs untreated controls
Summary of the method: as §2

[18] = test system: Echinochloa crus-galli (ECHCG); experiment: Pre-emergence herbicidal action against ECHCG; details: dosage 320 g/ha
Summary of the method: as §2

[19] = test system: Polygonum convolvulus (POLCO); experiment: Post-emergence herbicidal action against POLCO; details: dosage 320 g/ha
Summary of the method: as §3

Viola tricolor (VIOTR) [20] = experiment: Pre-emergence herbicidal action against VIOTR; details: 320 g/ha, Viola tricolor
Summary of the method: as §2

Viola tricolor (VIOTR) [21] = experiment: Post-emergence herbicidal action against VIOTR; details: 320 g/ha
Summary of the method: as §3

[22] = test system: Alopecurus myosuroides (ALOMY); experiment: Post-emergence herbicidal action against ALOMY; details: 320 g/ha, visual rating about 3 weeks after treatment vs untreated controls (100% = plants have died, 0% = like control plants)
Summary of the method: as §3

Zea mays (ZEAMX) [23] = details: pre-emergence, crop plant compatibility, in comparison to untreated controls
Summary of the method: as §1

Zea mays (ZEAMX) [24] = details: crop plant compatibility, effect vs untreated controls
Summary of the method: as §4

[25] = 320 g/ha, visual rating about 3 weeks after treatment

Structure (SMILES) | Pre-emergence action against TRZAS in % ([1]; 80 g/ha) [%] | Pre-emergence action against ORYSA in % (Oryza sativa (ORYSA) [2]; 80 g/ha) [%] | Pre-emergence action against LOLRI in % (Lolium rigidum (LOLRI) [3]) [%] | Pre-emergence action against PHBPU in % [4] [%] | Post-emergence action against ECHCG in % [5] [%] | Post-emergence action against LOLRI in % (Lolium rigidum (LOLRI) [6]) [%] | Post-emergence action against SETVI in % (Setaria viridis (SETVI) [7]; dosage 320 g/ha) [%] | Pre-emergence action against POLCO in % ([8]; dosage 320 g/ha) [%] | Post-emergence action against PHBPU in % ([9]; dosage 80 g/ha) [%] | Post-emergence action against PHBPU in % ([9]; dosage 320 g/ha) [%] | Post-emergence action against VERPE in % ([10]; 320 g/ha, VERPE) [%] | Post-emergence action against VERPE in % ([10]; dosage 80 g/ha) [%] | Pre-emergence action against VERPE in % [11] [%] | Post-emergence action against TRZAS in % [12] [%] | Post-emergence action against ORYSA in % (Oryza sativa (ORYSA) [13]; 80 g/ha) [%] | Pre-emergence action against MATIN in % [14] [%] | Pre-emergence action against SETVI in % (Setaria viridis (SETVI) [15]) [%] | Post-emergence action against AMARE in % [16, 25] [%] | Pre-emergence action against AMARE in % [17] [%] | Pre-emergence action against ORYSA in % (Oryza sativa (ORYSA) [2]; 320 g/ha) [%] | further results
COCCOC(=O)COc1nn(-c2cccc(C)n2)c(-c2ccc(F)nc2)c1Cl [Example I-279] | 20 | 0 | 80 | 100 | 80 | 80 | 80 | 80 | 80 | 80 | 90 | 80 | 80 | 10 | 10 | 80 | 90 |  |  |  | Post-emergence action against SETVI in % (Setaria viridis (SETVI) [7]; dosage 80 g/ha): 80%
CCOC(=O)COc1nn(-c2cccc(C)n2)c(-c2ccc(F)nc2)c1Cl [Example I-352] | 10 | 20 | 80 | 80 | 80 | 80 | 80 | 90 | 90 | 90 | 80 | 80 | 80 | 10 | 20 | 90 | 90 | 80 | 90 |  | Pre-emergence action against POLCO in % ([8]; dosage 80 g/ha): 80%; Post-emergence action against AVEFA in % (Avena fatua (AVEFA)): 80%; Pre-emergence action against ECHCG in % [18]: 90%
CCOC(=O)COc1nn(-c2ccncc2)c(-c2ccc(F)nc2)c1Br [III-08] | 0 | 0 |  |  |  |  |  |  |  |  |  |  |  | 0 | 0 |  |  | 80 | 80 | 0 | Pre-emergence action against TRZAS in % ([1]; 320 g/ha): 0%; Post-emergence action against POLCO in % [19]: 80%; Pre-emergence action against VIOTR in % (Viola tricolor (VIOTR) [20]): 90%; Post-emergence action against VIOTR in % (Viola tricolor (VIOTR) [21]): 80%; Post-emergence action against ORYSA in % (Oryza sativa (ORYSA) [13]; 320 g/ha): 0%; Post-emergence action against ALOMY in % [22]: 80%
COC(=O)[C@H](C)NC(=O)COc1nn(-c2ccnc(F)c2)c(-c2ccc(F)nc2)c1Br [III-28] | 0 | 0 |  |  |  |  |  |  |  |  |  |  | 80 |  | 0 |  |  | 80 | 80 | 10 | Pre-emergence action against ZEAMX in % (Zea mays (ZEAMX) [23]; 80 g/ha): 0%; Pre-emergence action against ZEAMX in % (Zea mays (ZEAMX) [23]; 320 g/ha): 10%; Post-emergence action against AMARE in % ([16]; 80 g/ha, visual rating about 3 weeks after treatment vs untreated controls (100% = plants have died, 0% = like control plants)): 80%; Post-emergence action against ZEAMX in % (Zea mays (ZEAMX) [24]; 80 g/ha): 0%; Post-emergence action against ZEAMX in % (Zea mays (ZEAMX) [24]; 320 g/ha): 0%; Post-emergence action against ORYSA in % (Oryza sativa (ORYSA) [13]; 320 g/ha): 0%
